# Laboratory results from paper PMC11111408, “Concurrent inhibition of oncogenic and wild-type RAS-GTP for cancer therapy” (Nature, 2024).
# System: PRISM DNA-barcoded human tumour cell lines
# Assay: PRISM pooled cell viability assay;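 for PRISM AUC: 8 threefold dilutions from 10 µM with 5 days of exposure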
# Type: cell-based
# Set-up: AUC (PRISM viability) / AUC (PRISM): unit not given beside the values
# Conditions: for AUC (PRISM viability): WT; for PRISM AUC: KRAS MUT
# Experimental: Cells were then lysed in TCL mRNA lysis buffer, and then PCR with reverse transcription was performed. Detection of the barcodes and univariate and multivariate analysis was then performed as previously described. Data analysis is described in the Supplementary Methods. Up-to-date code for our analysis is at the github link: https://github.com/cmap/dockerized_mts.
# For every gene with non-silent mutations in at least four cell-lines, we compared the AUC values between cells with and without those mutations using a t-test. This analysis was carried out for: (i) the full dataset; (ii) excluding cell lines with non-silent KRAS mutations; and (iii) excluding cell lines that have either KRAS or NRAS non-silent mutations.
structure (smiles),measurement,setting,value
CCn1c(-c2cc(N3CCN(C4CC4)CC3)cnc2[C@H](C)OC)c2c3cc(ccc31)-c1csc(n1)C[C@H](NC(=O)[C@H]1[C@@H]3COC[C@@H]31)C(=O)N1CCC[C@H](N1)C(=O)OCC(C)(C)C2 [RMC-7977],AUC (PRISM viability),MPP89_PLEURA,0.9969
same,AUC (PRISM viability),MSTO211H_PLEURA,0.3796
same,AUC (PRISM viability),NALM6_HAEMATOPOIETIC_AND_LYMPHOID_TISSUE,0.7052
same,AUC (PRISM viability),NB1_AUTONOMIC_GANGLIA,0.4921
same,PRISM AUC,NCIH23_LUNG,0.451
same,AUC (PRISM viability),NCIH28_PLEURA,0.6741
same,AUC (PRISM viability),NCIH82_LUNG,0.581
same,AUC (PRISM viability),NCIH196_LUNG,0.9033
same,AUC (PRISM viability),NCIH226_LUNG,0.6197
same,AUC (PRISM viability),NCIH292_LUNG,0.4596
same,AUC (PRISM viability),NCIH322_LUNG,0.4865
same,PRISM AUC,NCIH358_LUNG,0.1803
same,PRISM AUC,NCIH441_LUNG,0.3007
same,AUC (PRISM viability),NCIH446_LUNG,0.8555
same,AUC (PRISM viability),NCIH508_LARGE_INTESTINE,0.3599
same,AUC (PRISM viability),NCIH520_LUNG,0.7662
same,AUC (PRISM viability),NCIH522_LUNG,0.759
same,AUC (PRISM viability),NCIH524_LUNG,0.7662
same,AUC (PRISM viability),NCIH596_LUNG,0.5305
same,PRISM AUC,NCIH647_LUNG,0.7239
same,AUC (PRISM viability),NCIH661_LUNG,0.7122
same,PRISM AUC,NCIH727_LUNG,0.5024
same,PRISM AUC,NCIH747_LARGE_INTESTINE,0.2108
same,AUC (PRISM viability),NCIH838_LUNG,0.8166
same,AUC (PRISM viability),NCIH841_LUNG,0.7846
same,AUC (PRISM viability),NCIH1048_LUNG,0.6373
same,AUC (PRISM viability),NCIH1092_LUNG,0.3222
same,AUC (PRISM viability),NCIH1299_LUNG,0.4354
same,PRISM AUC,NCIH1339_LUNG,0.4553
same,AUC (PRISM viability),NCIH1341_LUNG,0.5477
same,PRISM AUC,NCIH1355_LUNG,0.4521
same,PRISM AUC,NCIH1373_LUNG,0.3791
same,AUC (PRISM viability),NCIH1435_LUNG,0.8637
same,AUC (PRISM viability),NCIH1437_LUNG,0.5969
same,AUC (PRISM viability),NCIH1563_LUNG,0.6189
same,AUC (PRISM viability),NCIH1568_LUNG,0.6734
same,AUC (PRISM viability),NCIH1581_LUNG,0.9998
same,AUC (PRISM viability),NCIH1648_LUNG,0.2199
same,AUC (PRISM viability),NCIH1650_LUNG,0.6245
same,AUC (PRISM viability),NCIH1651_LUNG,0.8871
same,AUC (PRISM viability),NCIH1693_LUNG,0.8183
same,AUC (PRISM viability),NCIH1694_LUNG,0.5791
same,AUC (PRISM viability),NCIH1703_LUNG,0.6825
same,PRISM AUC,NCIH1792_LUNG,0.2139
same,AUC (PRISM viability),NCIH1793_LUNG,0.6312
same,AUC (PRISM viability),NCIH1838_LUNG,0.5855
same,AUC (PRISM viability),NCIH1915_LUNG,0.641
same,PRISM AUC,NCIH1944_LUNG,0.5331
same,AUC (PRISM viability),NCIH1975_LUNG,0.5382
same,AUC (PRISM viability),NCIH2023_LUNG,0.5354
same,AUC (PRISM viability),NCIH2087_LUNG,0.3287
same,AUC (PRISM viability),NCIH2110_LUNG,0.5875
same,PRISM AUC,NCIH2122_LUNG,0.1883
same,AUC (PRISM viability),NCIH2126_LUNG,0.6292
same,AUC (PRISM viability),NCIH2170_LUNG,0.6244
same,AUC (PRISM viability),NCIH2171_LUNG,0.8542
same,AUC (PRISM viability),NCIH2172_LUNG,0.765
same,AUC (PRISM viability),NCIH2228_LUNG,0.4232
same,PRISM AUC,NCIH2444_LUNG,0.2818
same,AUC (PRISM viability),NCIH2452_PLEURA,1
same,AUC (PRISM viability),NCIN87_STOMACH,0.7465
same,AUC (PRISM viability),NCO2_HAEMATOPOIETIC_AND_LYMPHOID_TISSUE,0.625
same,AUC (PRISM viability),NIHOVCAR3_OVARY,0.7506
same,PRISM AUC,NOMO1_HAEMATOPOIETIC_AND_LYMPHOID_TISSUE,0.4639
same,AUC (PRISM viability),NUGC3_STOMACH,0.3156
same,AUC (PRISM viability),NUGC4_STOMACH,0.304
same,AUC (PRISM viability),OAW42_OVARY,0.7122
same,AUC (PRISM viability),OC314_OVARY,0.7084
same,AUC (PRISM viability),OC316_OVARY,0.6527
same,AUC (PRISM viability),OCIAML2_HAEMATOPOIETIC_AND_LYMPHOID_TISSUE,0.8145
same,AUC (PRISM viability),OCIAML3_HAEMATOPOIETIC_AND_LYMPHOID_TISSUE,0.162
same,AUC (PRISM viability),OCILY3_HAEMATOPOIETIC_AND_LYMPHOID_TISSUE,0.7702
same,AUC (PRISM viability),OCIM1_HAEMATOPOIETIC_AND_LYMPHOID_TISSUE,0.5554
same,AUC (PRISM viability),OE19_OESOPHAGUS,0.4503
same,AUC (PRISM viability),OE21_OESOPHAGUS,0.4077
same,AUC (PRISM viability),OE33_OESOPHAGUS,0.4516
same,AUC (PRISM viability),ONCODG1_OVARY,0.8342
same,AUC (PRISM viability),ONS76_CENTRAL_NERVOUS_SYSTEM,0.1792
same,AUC (PRISM viability),OSRC2_KIDNEY,0.7371
same,AUC (PRISM viability),OUMS23_LARGE_INTESTINE,0.9107
same,PRISM AUC,OV7_OVARY,0.3327
same,PRISM AUC,OV56_OVARY,0.6812
same,AUC (PRISM viability),OVISE_OVARY,0.7216
same,AUC (PRISM viability),OVKATE_OVARY,0.7188
same,AUC (PRISM viability),OVTOKO_OVARY,0.7297
same,AUC (PRISM viability),P12ICHIKAWA_HAEMATOPOIETIC_AND_LYMPHOID_TISSUE,0.1917
same,PRISM AUC,PANC1_PANCREAS,0.7301
same,PRISM AUC,PANC0203_PANCREAS,0.1549
same,PRISM AUC,PANC0327_PANCREAS,0.3885
same,PRISM AUC,PANC0403_PANCREAS,0.1969
same,PRISM AUC,PANC0504_PANCREAS,0.2677
same,PRISM AUC,PANC0813_PANCREAS,0.6012
same,PRISM AUC,PANC1005_PANCREAS,0.492
same,PRISM AUC,PATU8902_PANCREAS,0.2883
same,PRISM AUC,PATU8988S_PANCREAS,0.2608
same,PRISM AUC,PATU8988T_PANCREAS,0.5033
same,AUC (PRISM viability),PC3_PROSTATE,0.7599
same,AUC (PRISM viability),PC14_LUNG,0.4618
same,AUC (PRISM viability),PECAPJ15_UPPER_AERODIGESTIVE_TRACT,0.4843
same,AUC (PRISM viability),PECAPJ41CLONED2_UPPER_AERODIGESTIVE_TRACT,0.3318
same,AUC (PRISM viability),PECAPJ49_UPPER_AERODIGESTIVE_TRACT,0.2883
same,AUC (PRISM viability),PF382_HAEMATOPOIETIC_AND_LYMPHOID_TISSUE,0.3397
same,PRISM AUC,PK1_PANCREAS,0.3834
same,PRISM AUC,PK45H_PANCREAS,0.5023
same,PRISM AUC,PK59_PANCREAS,0.2749
same,AUC (PRISM viability),PLCPRF5_LIVER,0.7216
same,PRISM AUC,PSN1_PANCREAS,0.12
same,PRISM AUC,QGP1_PANCREAS,0.3907
same,AUC (PRISM viability),RCC10RGB_KIDNEY,0.7484
same,PRISM AUC,RCM1_LARGE_INTESTINE,0.1259
same,AUC (PRISM viability),RDES_BONE,0.7616
same,AUC (PRISM viability),RD_SOFT_TISSUE,0.207
same,AUC (PRISM viability),RERFGC1B_STOMACH,0.5427
same,PRISM AUC,RERFLCAD2_LUNG,0.4067
same,AUC (PRISM viability),RERFLCAI_LUNG,0.6094
same,AUC (PRISM viability),RERFLCKJ_LUNG,0.8949
same,AUC (PRISM viability),RERFLCMS_LUNG,0.7953
same,AUC (PRISM viability),RH30_SOFT_TISSUE,0.6971
same,AUC (PRISM viability),RI1_HAEMATOPOIETIC_AND_LYMPHOID_TISSUE,0.7681
same,PRISM AUC,RKN_SOFT_TISSUE,0.1266
same,AUC (PRISM viability),RKO_LARGE_INTESTINE,0.9515
same,AUC (PRISM viability),RL952_ENDOMETRIUM,0.342
same,AUC (PRISM viability),RL_HAEMATOPOIETIC_AND_LYMPHOID_TISSUE,0.7851
same,AUC (PRISM viability),RMGI_OVARY,0.5297
same,AUC (PRISM viability),RMUGS_OVARY,0.8312
same,AUC (PRISM viability),RPMI7951_SKIN,0.9756
same,AUC (PRISM viability),RPMI8402_HAEMATOPOIETIC_AND_LYMPHOID_TISSUE,0.7828
same,AUC (PRISM viability),RT4_URINARY_TRACT,0.5133
same,AUC (PRISM viability),RT112_URINARY_TRACT,0.1516
same,AUC (PRISM viability),RVH421_SKIN,0.8566
same,AUC (PRISM viability),SBC5_LUNG,0.6474
same,AUC (PRISM viability),SCABER_URINARY_TRACT,0.3752
same,AUC (PRISM viability),SCC9_UPPER_AERODIGESTIVE_TRACT,0.5257
